Laboratory results: PubChem BioAssay (NCI)
Where “and” joins values, the source holds several entries; their conditions need not be identical. Equal values may be shown once.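 Method: 48-hour compound exposure of cells in 96-well plates, five concentrations, linear interpolation of endpoints. GI50 = concentration required for 50% inhibition of growth. At the TGI there is no net growth.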

What was measured:
Assay in all cases: DTP human tumour cell line panel, 48 h
[1] = test system: OVCAR-3 ovarian
[2] = test system: ACHN renal
[3] = test system: HCT-15 colon
[4] = test system: HOP-92 NSCLC
[5] = test system: SW-620 colon
[6] = test system: MDA-MB-435
[7] = test system: HCT-116 colon
[8] = test system: KM12 colon
[9] = test system: SR leukemia
[10] = test system: SK-MEL-2 melanoma

Row | Structure (SMILES) | GI50 [1] | TGI [1] | GI50 [2] | TGI [2] | GI50 [3] | TGI [3] | GI50 [4] | TGI [4] | GI50 [5] | TGI [5] | GI50 [6] | TGI [6] | GI50 [7] | TGI [7] | GI50 [8] | TGI [8] | GI50 [9] | TGI [9] [µM] | GI50 [10] [µM] | TGI [10]
1 | COc1ccc(Cl)cc1Nc1nc(C(F)(F)F)ccc1C(=O)NN | 0.615 µM | > 24.5 µM | 2.53 µM | > 100 µM | 1.2 µM | > 100 µM | 2.56 µM | 40.1 µM | 27.9 µM | > 100 µM | 9.08 µM | > 100 µM | 4.76 µM | > 100 µM | 9.08 µM | > 100 µM | 0.404 µM | 3.56 | 2.7 | > 100 µM
2 | Cc1cc(N(CCNc2ccnc3cc(Cl)ccc23)Cc2ccc3c(c2)OCO3)nc(N2CCN(C)CC2)n1 | 2.73 µM | 10.9 µM | 2.52 µM | 5.78 µM | 1.55 µM | 3.82 µM | 1.29 µM | 2.96 µM | 2.08 µM | 5.41 µM | 1.61 µM | 3.07 µM | 1.41 µM | 4.7 µM | 4.42 µM | 17.7 µM | 1.5 µM | 4.43 | 1.98 | 4.02 µM
3 | CCOC(=O)c1c(NC(=O)c2ccc(C(C)C)cc2)sc2c(CN(C)C)c(O)ccc12 | 3.52 µM | 11.9 µM | 3.03 µM | 9.24 µM | 1.17 µM | 2.74 µM | 1.44 µM | 3.1 µM | 1.7 µM | 3.41 µM | 1.77 µM | 3.37 µM | 1.78 µM | 3.36 µM | 1.83 µM | 3.45 µM | 2.09 µM | 6.44 | 2.14 | 4.59 µM
4 | Cc1cccc(NC(=O)c2sc3nc4c(cc3c2N)CCCC4)c1C | 0.285 µM | 0.871 µM | 0.68 µM | > 100 µM | 0.363 µM | > 100 µM | 0.7 µM | > 100 µM | 0.369 µM | > 100 µM | 0.115 µM | 0.391 µM | 0.435 µM | > 100 µM | 0.342 µM | > 100 µM | 0.276 µM | > 100 | 0.515 | > 100 µM
5 | C/C(=N\O)c1ccc(Nc2cc(-n3nnc4ccccc43)nc3ccccc23)cc1 | 16.3 µM | 43.1 µM | 5.82 µM | 21.8 µM | 4.17 µM | 20.9 µM | 14.4 µM | 46.5 µM | 11.6 µM | 39.4 µM | 8.86 µM | > 28.3 µM | 7.64 µM | 23.7 µM | 2.98 µM | 10.9 µM | 18.7 µM | 74.9 | 15.6 | 47.6 µM
6 | Fc1cccc(COc2ccc(Nc3ncnc4sc(-c5ccco5)cc34)cc2Cl)c1 | > 25 µM | > 25 µM | > 25 µM | > 25 µM | > 25 µM | > 25 µM | > 25 µM | > 25 µM | > 25 µM | > 25 µM | > 25 µM | > 25 µM | > 25 µM | > 25 µM | > 25 µM | > 25 µM | > 25 µM | > 25 | > 25 | > 25 µM
7 | Nc1cc2c3c(cccc3c1)NC2=O | – | > 100 µM | – | > 100 µM | – | > 100 µM | – | > 100 µM | – | > 100 µM | – | > 100 µM | – | > 100 µM | – | > 100 µM | – | > 100 | – | > 100 µM
8 | O=C(Nc1ccc(OC(F)(F)F)cc1)c1sccc1NCc1ccnc2ccccc12 | 4.89 µM | > 100 µM | 2.56 µM | > 100 µM | 3.22 µM | > 66.7 µM | 2.5 µM | 19 µM | 5.03 µM | > 100 µM | 2.87 µM | 18.7 µM | 2.12 µM | > 100 µM | 3.85 µM | > 56.9 µM | 4.25 µM | > 100 | 1.28 | 4.3 µM
9 | COC1/C=C/OC2(C)Oc3c(C)c(O)c4c(c3C2=O)C(=O)C=C(NC(=O)/C(C)=C\C=C\C(C)C(OC=O)C(C)C(O)C(C)C(OC(C)=O)C1C)C4=O (stereo not drawn) | – | 11.9 µM | – | 21.5 µM | – | 22.7 µM | – | 28.8 µM | – | 14 µM | – | 33.3 µM | – | 14.1 µM | – | 45.9 µM | – | 8.08 | – | 36.6 µM
10 | Nc1cc(N)c2nc(-c3ccccc3)c(Oc3ccc(F)cc3)nc2c1 | 15.4 µM | 41.7 µM | 21.8 µM | 85.9 µM | 36 µM | > 100 µM | 12.2 µM | 29.8 µM | 19.5 µM | 50.1 µM | 15.8 µM | 32.6 µM | 14.8 µM | 80.7 µM | 14.5 µM | 40.3 µM | 8.15 µM | > 100 | 43 | > 100 µM
11 | CN1C2CC(C#N)C1C=CC2=O (stereo not drawn) | 15.5 µM and > 100 µM | 30.7 µM and > 100 µM | 22.8 µM and > 100 µM | 76.9 µM and > 100 µM | 13.6 µM and > 100 µM | 40.7 µM and > 100 µM | 14.5 µM and 62.3 µM | 31.4 µM and > 100 µM | 15.1 µM and 72.5 µM | 43.7 µM and > 100 µM | 16.9 µM and 89.2 µM | 36.7 µM and > 100 µM | 13.4 µM and 43.8 µM | 27.2 µM and > 100 µM | 16.9 µM and 88.2 µM | 33.5 µM and > 100 µM | 24.2 µM and 86.1 µM | > 100 | – | 51.4 µM and > 100 µM
12 | Cc1cc2c(C(C)C)c(O)c(O)c(C=Nc3cc(C(F)(F)F)ccc3Cl)c2c(O)c1-c1c(C)cc2c(C(C)C)c(O)c(O)c(C=Nc3cc(C(F)(F)F)ccc3Cl)c2c1O | – | > 100 µM | – | 79.4 µM | – | > 100 µM | – | 53.5 µM | – | > 100 µM | – | 86 µM | – | > 100 µM | – | 92.4 µM | – | > 100 | – | 80.8 µM
13 | CC1(C)O[C@H]2OC3CCC(=O)CC3(O)[C@H]2O1 (stereo partly drawn) | – | > 100 µM | – | > 100 µM | – | > 100 µM | – | > 100 µM | – | > 100 µM | – | > 100 µM | – | > 100 µM | – | > 100 µM | – | > 100 | – | > 100 µM
14 | CNC(=O)Nc1ccc(-c2nc(N3CCOCC3)nc3c2cnn3C2CCOCC2)cc1 | 0.21 µM | – | 0.225 µM | 1.74 µM | 0.26 µM | > 100 µM | 0.0371 µM | 0.526 µM | 0.332 µM | > 100 µM | 0.168 µM | 0.821 µM | 0.422 µM | > 100 µM | 0.384 µM | > 100 µM | 0.239 µM | > 19.8 | 0.382 | 3.56 µM
